Assay results as given in US6868215B2, “Dye thin film, production method thereof, optical switch, optical distributor, optical modulator and optical switch array” (Fuji Xerox Co., Ltd., priority 2002, dated 2005).

Test: thermal stability: thermal decomposition temperature by thermogravimetry and differential thermal analysis
Type: physicochemical
Procedure: For the absorption characteristic, absorption spectra were measured by using a near infrared photospectrometer. Further, for the thermal stability, the thermal decomposition temperature was measured by thermogravimetry and differential thermal analysis. Further, the solubility in organic solvents such as chloroform or acetone was confirmed.

decomposition temperature: 202.7 °C
SMILES: CC(C)CN(CC(C)C)c1cc(O)c2c(c1)OC(=O)/C2=C(/[O-])C1=C2C(O)=CC(=[N+](CC(C)C)CC(C)C)C=C2OC1=O [compound (1)]
